Data as given in patent US12263248B2, “Compounds and compositions for intracellular delivery of therapeutic agents” (ModernaTX, Inc., priority 2018, dated 2025).

Tests used:
IL-6, IP-10 = experiment: Cytokine induction in mice upon intravenous administration; format: in vivo; design: Cytokine induction IL-6 / Cytokine induction IP-10: unit not given here; conditions: 0.5 mpk, 6 hours; for Cytokine induction IL-6 / Cytokine induction IP-10: intravenous
Outline: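 Mice dosed intravenously with nanoparticle compositions at 0.5 mpk; serum cytokine concentrations (IL-6, IP-10) measured at 6 hours. MC3 formulation and PBS controls run alongside.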

luciferase (Luc) mRNA [1] = experiment: Luc expression in liver, lung, spleen and femur 6 hours after intravenous administration; format: in vivo; conditions: mice, 0.5 mpk; for Total Flux Femur / Total Flux Liver / Total Flux Lung / Total Flux Spleen: intravenous
Outline: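 LNP-formulated mRNA given IV to mice (n=3) at 0.5 mpk; at 6 h, bioluminescence imaged ex vivo 15 min after IP D-luciferin (15 mg/mL, 200 μL), organs imaged within 25 min. Values are total flux by region of interest.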

luciferase (Luc) mRNA [2] = experiment: Luc expression (total flux) after intramuscular administration; format: in vivo, mice; conditions: for Total flux, 0.001 mpk Dose / Total flux, 0.01 mpk Dose: Luc mRNA and H10 mRNA; for Novel lipid/MC3 expression ratio, 6 hr. time point, i.m. Luc: relative to MC3 formulation
Outline: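 Mice given a single intramuscular dose of lipid nanoparticle formulations carrying modified Luc mRNA, alone or with H10 mRNA, at 0.001 or 0.01 mpk total. Luciferase expression recorded as total flux.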

luciferase (Luc) mRNA [3] = experiment: Luc expression, whole body bioluminescence after intravenous administration to mice; format: in vivo; conditions: for Fold increase in total body Luc Flux relative to MC3 at 6 h: Table 3A; for Total Flux 3 hours / Total Flux 6 hours / Total Flux 24 hours: Luc mRNA
Outline: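 Luc mRNA nanoparticle formulations given intravenously to mice (n=6) at 0.5 mg/kg; whole-body bioluminescence imaged at 3, 6 and 24 h. CD-1 mice received IP D-luciferin (200 μL of 15 mg/mL) 15 min before imaging; total flux quantified by region of interest.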

[4] = 6 hours after intramuscular administration
[5] = 6 hours after intramuscular administration, 0.01 mpk

Row | Structure (SMILES) | Cytokine induction IL-6 (IL-6, IP-10) | Cytokine induction IP-10 (IL-6, IP-10) | Total Flux Femur (luciferase (Luc) mRNA [1]) | Total Flux Liver (luciferase (Luc) mRNA [1]) | Total Flux Lung (luciferase (Luc) mRNA [1]) | Total Flux Spleen (luciferase (Luc) mRNA [1]) | Total flux, 0.001 mpk Dose (luciferase (Luc) mRNA [2]; [4]) | Total flux, 0.01 mpk Dose (luciferase (Luc) mRNA [2]; [5]) | Novel lipid/MC3 expression ratio, 6 hr. time point, i.m. Luc (luciferase (Luc) mRNA [2]; intramuscular) | Fold increase in total body Luc Flux relative to MC3 at 6 h (luciferase (Luc) mRNA [3]; i.v. administration) | Total Flux 3 hours (luciferase (Luc) mRNA [3]; mice, i.v., 0.5 mg/kg) | Total Flux 6 hours (luciferase (Luc) mRNA [3]; mice, i.v., 0.5 mg/kg) | Total Flux 24 hours (luciferase (Luc) mRNA [3]; mice, i.v., 0.5 mg/kg) | other results
1 | CCCCCCCCCOC(=O)CCCCCCCN(CCCO)CCCCCCCC(=O)OC(CCCCCCCC)CCCCCCCC [Compound 19, Heptadecan-9-yl 8-((3-hydroxypropyl)(8-(nonyloxy)-8-oxooctyl)amino) octanoate] | 285.56 | 1468.94 | 1.68E+06 | 6.33E+08 | 5.99E+06 | 1.77E+07 | 3.28E+06 p/s | 2.96E+07 p/s | 3.68 | 0.96 | 3.38E+10 | 3.56E+09 | 4.68E+08 | IL-6 induction (IL-6, IP-10; i.v., in words): highest
2 | CCCCC/C=C\C/C=C\CCCCCCCCN(CCO)CCCCCCCC(=O)OCCCCCCCCC [Compound 136, Nonyl 8-((2-hydroxyethyl)((9Z,12Z)-octadeca-9,12-dien-1-yl)amino)octanoate] | 28.69 | 887.91 | 6.60E+05 | 1.34E+08 | 8.91E+05 | 2.77E+07 | – | – | – | – | 7.21E+08 | 7.33E+08 | 3.39E+07 | –
3 | CCCCCCCCCOC(=O)CCCCCCCN(CCCCCCCC(=O)OC(CCCCCCCC)CCCCCCCC)CCCNC(=O)N(C)C [Compound 110, Heptadecan-9-yl 8-((3-(3,3-dimethylureido)propyl)(8-(nonyloxy)-8-oxooctyl)amino)octanoate] | – | – | – | 2.30E+08 | 5.76E+06 | 1.41E+08 | – | – | 3.74 | – | 1.89E+09 | 2.57E+09 | 1.11E+08 | Total flux (p/s) 0.01 mpk Dose (luciferase (Luc) mRNA [2]; Table 5B, 6 hours after intramuscular administration, 0.01 mpk): 1.21E+08 p/s
4 | CCCCCCCCC(C)OC(=O)CCCCCCCN(CCO)CCCCCCCC(=O)OC(CCCCCCCC)CCCCCCCC (stereo not shown) [Compound 48, decan-2-yl 8-((8-(heptadecan-9-yloxy)-8-oxooctyl)(2-hydroxyethyl)amino)octanoate] | – | – | – | 1.08E+10 | 3.31E+07 | 3.49E+08 | 4.69E+05 p/s | 8.78E+06 p/s | – | 10.0 | 8.73E+10 | 1.10E+11 | 2.92E+09 | Flux in the liver (luciferase (Luc) mRNA [1]; i.v., in words): highest; Flux in the spleen (luciferase (Luc) mRNA [1]; i.v., in words): highest; Lipid/MC3 Luc expression (luciferase (Luc) mRNA [3]; 0.5 mpk dose to mouse, 6 hours after administration): 10.0; flux measured at 6 h relative to the MC3 formulation (luciferase (Luc) mRNA [3]; i.v. administration, in words): ten times higher; total flux at 3 hours (luciferase (Luc) mRNA [3]; mice, i.v., 0.5 mg/kg, comparison in words): highest
5 | CCCC/C=C\CCC(CC/C=C\CCCC)OC(=O)CCCCCCCN(CCO)CCCCCC(=O)OCCCCCCCCCCC [Compound 61, (5Z,12Z)-heptadeca-5,12-dien-9-yl 8-((2-hydroxyethyl)(6-oxo-6-(undecyloxy)hexyl)amino)octanoate] | – | – | – | 6.37E+08 | 3.56E+06 | 1.61E+07 | – | – | 3.51 | – | 6.54E+10 | 6.20E+10 | 1.78E+09 | AUC (p/s * h) (luciferase (Luc) mRNA [2]; Table 3H, intramuscular, Luc): 2.30E+09 p/s * h; Lipid/MC3 AUC (luciferase (Luc) mRNA [2]; Table 3H, intramuscular, Luc): 3.91; Novel lipid/MC3 expression ratio, 6 hr. time point, i.v. (luciferase (Luc) mRNA [3]; luciferase, intravenous, relative to MC3 formulation): 2.31
